The source of these data is patent US12458630B2, “Combination therapy for cancer” (The Regents of the University of California, priority 2020, dated 2025).

The subject of one experiment is KC6141 mouse PDAC cells. As to the kind of experiment: Cell viability assay (CCK-8). In kind it is cell-based. The settings on record: WT and IKKα KD 6141 cells on ECM, 0.5 mM glucose, 3 days; EIPA, IPI549 600 nM, MBQ-167 500 nM. The method, then:
Extracellular Matrix (ECM) Preparation. Skin fibroblasts were seeded on 6/12/96-well plates. One day after plating, cells were switched into DMEM (with pyruvate) with 10% dialysed FBS supplemented with or without 500 μM ^3H-proline and 100 μM Vitamin C. Cells were cultured for 6 days with media renewal every 24 h. After six days, skin fibroblasts were removed by washing in 1 ml or 500 μl or 100 μl per well PBS with 0.5% (v/v) Triton X-100 and 20 mM NH4OH. ECM was washed five times with PBS before plating KC6141 cells. The following day, KC6141 cells were switched into the indicated medium for 24 or 72 hrs.
Cell viability assay. Cell viability was determined with Cell Counting Kit-8 assay (CCK-8 assay kit, Glpbio). Cells were plated in 96-well plates at a density of 3000 cells (MIA PaCa-2) or 1500 cells (KC6141) per well and incubated overnight prior to treatment. EIPA (10 μM), MRT68921 (600 nM) or erlotinib (2 μM, Sigma) were added to the wells for 72 and 96 hrs. Next, 10 μL of CCK-8 was added to each well. The optical density was read at 450 nm using a microplate reader (FilterMax F5, Molecular Devices, USA) at day 0, 1, 2, 3, and 4. For glutamine-deprivation assays, cells in 96-well plates were rinsed briefly in PBS and incubated in the 0.2 mM glutamine. Glutamine-free DMEM medium was supplemented with 0.2 mM glutamine in the presence of 10% dialysed FBS and 25 mM HEPES. For some conditions, the medium was supplemented with a final concentration of 2% BSA (Fraction V, fatty-acid-, nuclease and protease-free, Calbiochem). For all experiments, media were replaced every 24 hrs. Viable cell counts were obtained using CCK-8 assay described as above.
(§1) In some embodiments, cells were plated in 96-well plates coated with or without ECM at a density of 3000 cells (MIA PaCa-2, 1444, 1305, COLO 357/FG) or 1500 cells (KC6141) per well and incubated overnight prior to treatment. EIPA (10.5 μM), IPI549 (600 nM), MBQ-167 (500 nM), MRT68921 (600 nM) or erlotinib (2 μM, Sigma), ML385 (10 μM, Sigma), HCQ (10 μM or 80 μM) or their combinations were added to the wells for 24, 72 or 96 hrs. Next, 10 μL of CCK-8 was added to each well. The optical density was read at 450 nm using a microplate reader (FilterMax F5, Molecular Devices, USA) at day 0, 1, 2, 3, and 4. For glutamine-deprivation assays, cells in 96-well plates were rinsed briefly in PBS and incubated in the 0.2 mM glutamine. Glutamine-free DMEM medium was supplemented with 0.2 mM glutamine in the presence of 10% dialyzed FBS and 25 mM HEPES. For glucose-deprivation assays, cells in 96-well plates were rinsed briefly in PBS and incubated in the 0.5 mM glucose. Glucose-free DMEM medium was supplemented with 0.5 mM glucose in the presence of 10% dialyzed FBS and 25 mM HEPES. For some conditions, the medium was supplemented with a final concentration of 2% BSA (Fraction V, fatty-acid-, nuclease and protease-free, Calbiochem). For all experiments, media were replaced every 24 hrs. Viable cell counts were obtained using CCK-8 assay described as above.

A further experiment concerns AKT phosphorylation. The experiment can be described thus: Immunoblot of AKT phosphorylation. In kind it is cell-based, human. The settings on record: NRF2(E79Q)-Myc-overexpressing MIA PaCa-2 cells, 600 nM IPI549. The protocol:
(§2) Immunoblot and immunoprecipitation. Cells were harvested and lysed in RIPA buffer (50 mM Tris-HCl, pH 7.4, 150 mM NaCl, 1% Triton X-100, 1% Na deoxycholate, 0.1% SDS, 1 mM EDTA) supplemented with complete protease inhibitor cocktail. Proteins were resolved on SDS-polyacrylamide gels, and then transferred to a polyvinylidene difluoride membrane. After blocking with 5% (w/v) fat free milk, the membrane was stained with the corresponding primary antibodies followed by incubation with the appropriate secondary HRP-conjugated antibodies, and development with ECL. Immunoreactive bands were detected by automatic X-ray film processor or KwikQuant Imager.

Another experiment relates to BxPC3 cells. As to the kind of experiment: TMR-DEX macropinosome uptake assay. The settings on record: WT and IKKα KO BxPC3 cells (WT KRAS), ML385 10 μM, 24 hrs. The experiment is classed as cell-based, human.
Experiment [1] relates to 1305 primary human PDAC cells. As to the kind of experiment: Cell viability assay (CCK-8). The experiment is classed as cell-based. Particulars: IKKα^low 1305 cells, 3 days. The method, then:
as §1

Another experiment deals with MP-related proteins. The experiment can be described thus: Immunoblot of MP-related proteins in BxPC3 cells. In kind it is cell-based, human. The settings on record: WT and IKKα KO BxPC3 cells, ML385 10 μM, 24 hrs. The protocol: as §2

SMILES strings stand for the structures.

For `C[C@H](NC(=O)c1c(N)nn2cccnc12)c1cc2cccc(C#Cc3cnn(C)c3)c2c(=O)n1-c1ccccc1` [IPI549], the “cell viability enhanced by extracellular matrix (ECM)” value in the experiment with KC6141 mouse PDAC cells was “suppressed”. In the experiment on AKT phosphorylation, the AKT phosphorylation entry is reported as “suppression of AKT phosphorylation”.
As to `Cc1ccccc1C(=O)N1CCc2cc(-c3nc(NC(=O)Cc4ccc5c(c4)OCO5)sc3C)ccc21` [ML385], in the experiment with BxPC3 cells, the “TMR-DEX uptake increased by IKKα ablation” value is on record as “blocked this effect”. Besides, the “sensitivity to single agent (cell viability)” value in experiment [1] is “very sensitive”. For the same compound, the “MP-related protein expression increased by IKKα ablation” value in the experiment on MP-related proteins is reported as “blocked this effect”.
